Measured values from ChEMBL document CHEMBL4020719, “Synthesis and biological evaluation of novel indole-pyrimidine hybrids bearing morpholine and thiomorpholine moieties” (Eur J Med Chem, 2017).

Legend:
[1] = test system: MCF7; assay: cells; details: Homo sapiens, MCF7, 48 h
[2] = test system: HeLa; assay: cells; details: Homo sapiens, 48 h
[3] = test system: MDA-MB-231; assay: Antiproliferative activity against human MDA-MB-231 cells after 48 hrs by MTT assay; format: functional, cell-based; details: MDA-MB-231, 48 h
[4] = test system: HCT-116; assay: cells; details: Homo sapiens, HCT-116, 48 h
[5] = species: Sus scrofa; assay: Inhibition of pig brain tubulin polymerization at 10 uM by spectrophotometric analysis
[6] = test system: HEK293; assay: Antiproliferative activity against HEK293 cells after 48 hrs by MTT assay; format: cell-based; details: Homo sapiens, HEK293, 48 h
[7] = test system: HCT-116; assay: Potency index, ratio of CA-4 IC50 to compound IC50 for human HCT116 cells; format: functional
[8] = test system: HeLa; assay: Cell cycle arrest in human HeLa cells assessed as accumulation at G0/G1 phase at 1.25 uM after 12 hrs by FACS analysis (reference value: 61.74%); format: functional
[9] = test system: HeLa; assay: Cell cycle arrest in human HeLa cells assessed as accumulation at G2/M phase at 1.25 uM after 12 hrs by FACS analysis (reference value: 9.12%); format: functional
[10] = test system: HeLa; assay: Cell cycle arrest in human HeLa cells assessed as accumulation at G0/G1 phase at 5 uM after 12 hrs by FACS analysis (reference value: 61.74%); format: functional
[11] = test system: HeLa; assay: Cell cycle arrest in human HeLa cells assessed as accumulation at G2/M phase at 5 uM after 12 hrs by FACS analysis (reference value: 9.12%); format: functional
[12] = test system: HeLa; assay: Cell cycle arrest in human HeLa cells assessed as accumulation at G2/M phase at 2.5 uM after 12 hrs by FACS analysis (reference value: 9.12%); format: functional
[13] = test system: HeLa; assay: Cell cycle arrest in human HeLa cells assessed as accumulation at S phase at 1.25 uM after 12 hrs by FACS analysis (reference value: 29.14%); format: functional
[14] = test system: HeLa; assay: Cell cycle arrest in human HeLa cells assessed as accumulation at G2/M phase after 12 hrs by FACS analysis; format: functional, cell-based
[15] = test system: HeLa; assay: Cell cycle arrest in human HeLa cells assessed as accumulation at S phase at 2.5 uM after 12 hrs by FACS analysis (reference value: 29.14%); format: functional
[16] = test system: HeLa; assay: Cell cycle arrest in human HeLa cells assessed as accumulation at G0/G1 phase at 2.5 uM after 12 hrs by FACS analysis (reference value: 61.74%); format: functional
[17] = test system: HeLa; assay: Cell cycle arrest in human HeLa cells assessed as accumulation at S phase at 5 uM after 12 hrs by FACS analysis (reference value: 29.14%); format: functional
[18] = Inhibition of pig brain tubulin polymerization by spectrophotometric analysis; design: species or system Sus scrofa

SMILES	IC50 [1]	IC50 [2]	IC50 [3]	IC50 [4]	inhibition [5]	other results
Cc1ccc2c(Nc3nc(N4CCOCC4)ncc3[N+](=O)[O-])c(C(=O)c3ccc(Br)cc3)[nH]c2c1	> 100 µM	> 100 µM	> 100 µM	> 100 µM	–	–
COc1ccc(C(=O)c2[nH]c3cc(C)ccc3c2Nc2nc(N3CCOCC3)ncc2[N+](=O)[O-])cc1	> 100 µM	90.5 µM	89.4 µM	44 µM	–	–
Cc1ccc2c(Nc3nc(N4CCOCC4)ncc3[N+](=O)[O-])c(C(=O)c3ccccc3)[nH]c2c1	56.8 µM	47.1 µM	76.3 µM	80.6 µM	–	–
CCOC(=O)n1c(C(=O)c2ccc(OC)cc2)c(Nc2nc(N3CCOCC3)ncc2[N+](=O)[O-])c2ccccc21	2.13 µM	5.52 µM	3.01 µM	2.99 µM	19%	IC50 [6]: > 100 µM; Ratio IC50 [7]: 2
O=C(c1ccc(Cl)cc1)c1[nH]c2cc(Cl)ccc2c1Nc1nc(N2CCOCC2)ncc1[N+](=O)[O-]	83.7 µM	> 100 µM	> 100 µM	> 100 µM	–	–
O=C(c1ccccc1)c1[nH]c2ccccc2c1Nc1nc(N2CCSCC2)ncc1[N+](=O)[O-]	> 100 µM	> 100 µM	> 100 µM	> 100 µM	2%	–
O=C(c1cccs1)c1[nH]c2cc(Cl)ccc2c1Nc1nc(N2CCOCC2)ncc1[N+](=O)[O-]	69.4 µM	94.7 µM	> 100 µM	> 100 µM	19%	–
O=C(c1ccc(-c2ccccc2)cc1)c1[nH]c2cc(Cl)ccc2c1Nc1nc(N2CCOCC2)ncc1[N+](=O)[O-]	42.7 µM	16.6 µM	58.7 µM	> 100 µM	–	–
O=C(c1ccc(Br)cc1)c1[nH]c2ccccc2c1Nc1nc(N2CCOCC2)ncc1[N+](=O)[O-]	85.4 µM	54.3 µM	34.1 µM	33.3 µM	–	–
CCOC(=O)n1c(C(=O)c2ccccc2)c(Nc2nc(N3CCOCC3)ncc2[N+](=O)[O-])c2ccc(Cl)cc21	78.4 µM	> 100 µM	35.8 µM	80.6 µM	–	–
COc1ccc(C(=O)c2[nH]c3ccccc3c2Nc2nc(N3CCSCC3)ncc2[N+](=O)[O-])cc1	> 100 µM	> 100 µM	> 100 µM	> 100 µM	–	–
O=C(c1ccccc1)c1[nH]c2cc(Cl)ccc2c1Nc1nc(N2CCOCC2)ncc1[N+](=O)[O-]	> 100 µM	> 100 µM	> 100 µM	> 100 µM	9%	–
Cc1ccc2c(Nc3nc(N4CCOCC4)ncc3[N+](=O)[O-])c(C(=O)c3ccc(-c4ccccc4)cc3)[nH]c2c1	60.4 µM	7.46 µM	> 100 µM	> 100 µM	–	–
Cc1ccc2c(Nc3nc(N4CCOCC4)ncc3[N+](=O)[O-])c(C(=O)c3cccs3)[nH]c2c1	> 100 µM	> 100 µM	93.7 µM	39.1 µM	–	–
Cc1ccc2c(Nc3nc(N4CCOCC4)ncc3[N+](=O)[O-])c(C(=O)c3ccc(Cl)cc3)[nH]c2c1	98.7 µM	> 100 µM	> 100 µM	> 100 µM	–	–
COc1ccc(C(=O)c2[nH]c3cc(Cl)ccc3c2Nc2nc(N3CCOCC3)ncc2[N+](=O)[O-])cc1	35 µM	47.1 µM	> 100 µM	24.4 µM	14%	–
O=C(c1ccccc1)c1[nH]c2ccccc2c1Nc1nc(N2CCOCC2)ncc1[N+](=O)[O-]	89.2 µM	82.5 µM	92.6 µM	55.8 µM	23%	–
COc1ccc(C(=O)c2[nH]c3ccccc3c2Nc2nc(N3CCOCC3)ncc2[N+](=O)[O-])cc1	57.1 µM	4.32 µM	8.69 µM	6.4 µM	14%	IC50 [6]: 14.8 µM
O=C(c1[nH]c2ccccc2c1Nc1nc(N2CCOCC2)ncc1[N+](=O)[O-])C1CC1	89.4 µM	49.6 µM	89.4 µM	73.5 µM	–	–
O=C(c1ccc(Br)cc1)c1[nH]c2ccccc2c1Nc1nc(N2CCSCC2)ncc1[N+](=O)[O-]	> 100 µM	> 100 µM	> 100 µM	> 100 µM	–	–
O=C(c1cccc(Br)c1)c1[nH]c2ccccc2c1Nc1nc(N2CCOCC2)ncc1[N+](=O)[O-]	1.42 µM	2.51 µM	9.42 µM	11.4 µM	36%	Activity [8]: 53.32%; Activity [9]: 12.63%; Activity [10]: 5.02%; Activity [11]: 88.58%; IC50 [6]: 10.1 µM; Activity [12]: 58.34%; Activity [13]: 34.05%; Activity [14]: Dose-dependent effect; Activity [15]: 26.35%; Activity [16]: 15.31%; Activity [17]: 6.4%
COc1ccc(/C=C\c2cc(OC)c(OC)c(OC)c2)cc1O [COMBRETASTATIN A4]	0.041 µM	0.23 µM	270 µM	6.1 µM	80%	–
CN1CCN(c2ncc([N+](=O)[O-])c(Nc3c(C(=O)c4cccs4)[nH]c4cc(Cl)ccc34)n2)CC1	13.9 µM	19.9 µM	5.01 µM	17.4 µM	47%	IC50 [6]: > 100 µM
O=C(c1ccc(-c2ccccc2)cc1)c1[nH]c2ccccc2c1Nc1nc(N2CCOCC2)ncc1[N+](=O)[O-]	0.29 µM	4.04 µM	10.3 µM	9.48 µM	42%	IC50 [6]: 78.6 µM; IC50 [18]: 19.3 µM
